# Laboratory results published in patent US20090270416A1, “N-OXIDES OF DIARYLUREA DERIVATIVES AND THEIR USE AS Chk1 INHIBITORS FOR THE TREATMENT OF CANCER” (SENTINEL ONCOLOGY LIMITED, priority 2006, published 2009).
# Experiments:
# [1] = target: T1, hERG potassium channel (Homo sapiens, UniProt Q12809); test: Functional hERG assay (patch clamp, HEK-293 cells); type: cell-based; details: 5-point dose response, triplicate
# T1 construct: expressed in transfected cells; host or cells: HEK-293
# Method: The N-oxide compounds of the invention and their tertiary amine precursors were each tested for hERG inhibiting activity using the method of Zhou Z, Gong Q, Ye B, Fan Z, Makielski J C, Robertson G A, January C T. Biophys J. 1998 January; 74(1):230-41.
# Test compounds were tested in triplicate in a 5-point dose response curve on HEK-293 cells stably expressing the hERG potassium channel. Potassium current was measured using the patch clamp technique on a Molecular Devices Patch Express 7000. hERG channels were activated by 2 second pulses to +20 mV from a holding potential of −80 mV, and peak tail currents were recorded upon repolarization to −50 mV. This voltage-clamp pulse protocol was performed continuously during the experiment (vehicle control, test compound, washout, and positive control additions). An interpulse interval of 15 seconds allowed recovery from any residual inactivation. Test compounds were incubated with cells between 3-8 minutes until the current reached a steady state level, defined by a Standard Deviation of 0.01. After the final test compound concentration was tested, test compound was washed out with continuous perfusion of extracellular solution for 3 minutes, followed by application of positive control (10 μM Cisparide).
# Test compounds were diluted in 100% DMSO at 1000× the highest concentration to be tested, vortexed, and sonicated. Visual inspection determined that compounds were completely solubilized. Test compounds were then diluted into glass vials in 100% DMSO for all test concentrations at 1000× the final concentration to be tested and vortexed. Test compounds were then diluted 1:1000 into extracellular solution and vortexed to achieve final concentration for testing. Final DMSO concentration was 0.1% for all concentrations of test compounds, Vehicle (negative) control, and Cisapride (positive) control in extracellular solution. The compositions of the solutions used were as follows:
# Intracellular Soln (mM): KCl 130, EDTA 5, MgCl2 5, HEPES10, Na-ATP 5, pH=7.2 Extracellular Soln (mM): NaCl 137, KCl 4, CaCl2 1.8, MgCl2 1, Dextrose 11, HEPES 10, pH=7.4
# [2] = target: T2, human potassium channel hERG (Homo sapiens, UniProt Q12809); test: hERG binding activity ([3H] astemizole displacement, HEK-293 membranes); details: 1.5 nM [3H] astemizole; for IC50: 60 minutes at 25° C.; for HERG Binding % @ 100 uM (extent of binding): @ 100 uM test compound
# T2 construct: expressed in transfected cells; host or cells: HEK-293
# T2 sequence (Q12809 whole entry): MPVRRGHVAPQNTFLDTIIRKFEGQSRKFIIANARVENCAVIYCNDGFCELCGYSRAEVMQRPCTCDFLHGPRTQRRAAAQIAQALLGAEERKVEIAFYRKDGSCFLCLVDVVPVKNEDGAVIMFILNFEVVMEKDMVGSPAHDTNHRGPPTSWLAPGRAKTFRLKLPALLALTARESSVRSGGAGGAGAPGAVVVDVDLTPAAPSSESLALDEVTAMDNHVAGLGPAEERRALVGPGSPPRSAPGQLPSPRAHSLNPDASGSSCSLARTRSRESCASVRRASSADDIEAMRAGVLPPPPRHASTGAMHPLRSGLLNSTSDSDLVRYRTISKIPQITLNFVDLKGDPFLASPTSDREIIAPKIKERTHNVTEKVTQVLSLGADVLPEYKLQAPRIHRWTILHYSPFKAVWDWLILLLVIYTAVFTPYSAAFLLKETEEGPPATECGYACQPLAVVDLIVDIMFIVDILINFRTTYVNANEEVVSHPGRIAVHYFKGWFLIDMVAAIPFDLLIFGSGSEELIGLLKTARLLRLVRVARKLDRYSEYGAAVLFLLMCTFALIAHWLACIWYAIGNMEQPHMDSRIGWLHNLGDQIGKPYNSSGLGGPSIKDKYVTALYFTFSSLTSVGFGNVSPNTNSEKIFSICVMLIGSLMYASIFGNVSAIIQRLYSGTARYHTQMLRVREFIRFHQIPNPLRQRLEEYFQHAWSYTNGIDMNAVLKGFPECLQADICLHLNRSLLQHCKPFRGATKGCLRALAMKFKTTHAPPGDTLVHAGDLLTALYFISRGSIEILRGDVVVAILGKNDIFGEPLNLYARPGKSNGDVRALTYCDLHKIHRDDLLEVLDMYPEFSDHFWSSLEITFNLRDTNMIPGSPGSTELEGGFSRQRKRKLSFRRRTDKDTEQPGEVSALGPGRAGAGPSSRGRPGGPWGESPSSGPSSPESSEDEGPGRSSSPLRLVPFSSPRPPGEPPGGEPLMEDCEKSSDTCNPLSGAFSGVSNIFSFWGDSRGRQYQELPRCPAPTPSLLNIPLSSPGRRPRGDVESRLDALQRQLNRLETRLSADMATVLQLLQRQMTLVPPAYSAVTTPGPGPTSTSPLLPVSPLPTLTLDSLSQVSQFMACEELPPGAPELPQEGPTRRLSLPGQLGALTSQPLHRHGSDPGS
# Method: The abilities of the N-oxide compounds of the invention and their tertiary amine precursors were tested using the assay described below.
# Human recombinant HEK-293 cells stably transfected with a plasmid encoding the human potassium channel hERG were used to prepare membranes in modified HEPES pH 7.4 buffer using standard techniques. A 10 μg aliquot of membrane was incubated with 1.5 nM [^3H] astemizole in the presence of varying concentrations of test compound for 60 minutes at 25° C. The membranes were then filtered and washed three times and the filters were counted to determine the [^3H] astemizole specifically bound. From the counts, the extent of binding of the test compound and, in some cases, the IC50 values of the test compounds, were determined.
# [3] = target: T3, CHK1 (h) (Homo sapiens, UniProt O14757); test: Chk-1 kinase inhibiting activity (Upstate radiometric assay); type: biochemical
# T3 construct: purchased Upstate Ltd (assay run at Upstate)
# T3 sequence (O14757 1-476): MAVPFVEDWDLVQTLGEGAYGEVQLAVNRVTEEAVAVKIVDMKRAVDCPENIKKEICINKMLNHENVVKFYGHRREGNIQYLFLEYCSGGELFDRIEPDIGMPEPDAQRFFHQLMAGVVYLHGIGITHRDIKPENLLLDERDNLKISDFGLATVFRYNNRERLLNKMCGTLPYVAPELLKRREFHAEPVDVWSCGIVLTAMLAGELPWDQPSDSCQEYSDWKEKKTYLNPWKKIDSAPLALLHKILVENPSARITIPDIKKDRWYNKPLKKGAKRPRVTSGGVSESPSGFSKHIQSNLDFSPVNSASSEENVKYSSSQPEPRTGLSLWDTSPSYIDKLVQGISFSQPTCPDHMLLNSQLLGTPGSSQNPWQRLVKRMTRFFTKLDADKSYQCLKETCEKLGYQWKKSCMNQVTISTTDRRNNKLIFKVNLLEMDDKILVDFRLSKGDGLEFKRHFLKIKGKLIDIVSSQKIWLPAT
# Method: The N-oxide compounds of the invention and their tertiary amine precursors were tested for activity against the Chk-1 kinase.
# The Chk-1 assay was conducted at Upstate Ltd, Gemini Crescent, Dundee Technology Park, Dundee, DD2 1 SW, UK in accordance with the protocol set out below. In a final reaction volume of 25 μl, CHK1 (h) (5-10 mU) is incubated with 8 mM MOPS pH 7.0, 0.2 mM EDTA, 200 μM […], 10 mM MgAcetate and γ-33P-ATP] (specific activity approx. 500 cpm/pmol, concentration as required). The reaction is initiated by the addition of the MgATP mix. After incubation for 40 minutes at room temperature, the reaction is stopped by the addition of 5 μl of a 3% phosphoric acid solution. 10 μl of the reaction mixture is then spotted onto a P30 filtermat and washed three times for 5 minutes in 75 mM phosphoric acid and once in methanol prior to drying and scintillation counting.
# [4] = target: T4, CDK2/cyclinE(h) (Homo sapiens, UniProt P24941); test: Kinase selectivity screen (Upstate); type: biochemical; details: 10 μM compound; ATP 120 μM; N = 2
# T4 construct: purchased Upstate
# Method: (§1) The compound of Example 1F was tested (Upstate) against a number of other kinases and the results are set out in Table 5 below.
# [5] = target: T5, FGFR1(h) (Homo sapiens, UniProt P11362); test: Kinase selectivity screen (Upstate); type: biochemical; details: 10 μM compound; ATP 200 μM; N = 2
# T5 construct: purchased Upstate
# Method: as §1
# [6] = target: T6, cSRC(h) (Homo sapiens, UniProt P12931); test: Kinase selectivity screen (Upstate); type: biochemical; details: 10 μM compound; ATP 200 μM; N = 2
# T6 construct: purchased Upstate
# Method: as §1
# [7] = target: T7, Tie2(h) (Homo sapiens, UniProt Q02763); test: Kinase selectivity screen (Upstate); type: biochemical; details: 10 μM compound; ATP 200 μM; N = 2
# T7 construct: purchased Upstate
# Method: as §1
# [8] = target: T8, Flt3(h) (Homo sapiens, UniProt P36888); test: Kinase selectivity screen (Upstate); type: biochemical; details: 10 μM compound; ATP 200 μM; N = 2
# T8 construct: purchased Upstate
# Method: as §1
# [9] = target: T9, MAPK2(h) (Homo sapiens, UniProt P28482); test: Kinase selectivity screen (Upstate); type: biochemical; details: 10 μM compound; ATP 155 μM; N = 2
# T9 construct: purchased Upstate
# T9 sequence (P28482 whole entry): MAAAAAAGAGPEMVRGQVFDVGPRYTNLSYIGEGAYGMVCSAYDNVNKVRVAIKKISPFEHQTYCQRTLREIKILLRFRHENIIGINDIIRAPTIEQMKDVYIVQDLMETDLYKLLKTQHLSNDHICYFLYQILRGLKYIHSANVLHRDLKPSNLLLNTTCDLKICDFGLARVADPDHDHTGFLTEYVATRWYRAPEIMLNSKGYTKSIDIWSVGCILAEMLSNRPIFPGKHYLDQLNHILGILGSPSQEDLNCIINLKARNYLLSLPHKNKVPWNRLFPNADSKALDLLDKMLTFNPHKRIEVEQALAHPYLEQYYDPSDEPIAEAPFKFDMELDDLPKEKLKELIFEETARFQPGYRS
# Method: as §1
# [10] = target: T10, Pim-1(h) (Homo sapiens, UniProt P11309); test: Kinase selectivity screen (Upstate); type: biochemical; details: 10 μM compound; ATP 90 μM; N = 2
# T10 construct: purchased Upstate
# T10 sequence (P11309 whole entry): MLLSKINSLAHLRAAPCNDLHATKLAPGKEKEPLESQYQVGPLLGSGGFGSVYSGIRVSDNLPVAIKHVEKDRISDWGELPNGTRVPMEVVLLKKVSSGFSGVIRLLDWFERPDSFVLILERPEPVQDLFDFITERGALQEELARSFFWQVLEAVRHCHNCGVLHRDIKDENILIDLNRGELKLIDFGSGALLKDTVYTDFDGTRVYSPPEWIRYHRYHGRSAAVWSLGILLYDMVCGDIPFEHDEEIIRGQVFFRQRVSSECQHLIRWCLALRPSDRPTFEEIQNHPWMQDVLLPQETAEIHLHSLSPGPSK
# Method: as §1
# [11] = target: T11, IGF-1R(h) (Homo sapiens, UniProt P08069); test: Kinase selectivity screen (Upstate); type: biochemical; details: 10 μM compound; ATP 200 μM; N = 2
# T11 construct: purchased Upstate
# Method: as §1
# [12] = target: T12, EGFR(h) (Homo sapiens, UniProt P00533); test: Kinase selectivity screen (Upstate); type: biochemical; details: 10 μM compound; ATP 10 μM; N = 2
# T12 construct: purchased Upstate
# Method: as §1
# [13] = target: T13, JNK1α1(h) (Homo sapiens, UniProt P45983); test: Kinase selectivity screen (Upstate); type: biochemical; details: 10 μM compound; ATP 45 μM; N = 2
# T13 construct: purchased Upstate
# Method: as §1
# [14] = target: T14, Yes(h) (Homo sapiens, UniProt P07947); test: Kinase selectivity screen (Upstate); type: biochemical; details: 10 μM compound; ATP 45 μM; N = 2
# T14 construct: purchased Upstate
# Method: as §1
# [15] = target: T15, MEK1(h) (Homo sapiens, UniProt Q02750); test: Kinase selectivity screen (Upstate); type: biochemical; details: 10 μM compound; ATP 10 μM; N = 2
# T15 construct: purchased Upstate
# Method: as §1
# [16] = target: T16, PDGFRβ(h) (Homo sapiens, UniProt P09619); test: Kinase selectivity screen (Upstate); type: biochemical; details: 10 μM compound; ATP 200 μM; N = 2
# T16 construct: purchased Upstate
# Method: as §1
# [17] = target: T17, PKA(h) (Homo sapiens, UniProt P17612); test: Kinase selectivity screen (Upstate); type: biochemical; details: 10 μM compound; ATP 10 μM; N = 2
# T17 construct: purchased Upstate
# Method: as §1
# [18] = target: T18, Fms(h) (Homo sapiens, UniProt P07333); test: Kinase selectivity screen (Upstate); type: biochemical; details: 10 μM compound; ATP 200 μM; N = 2
# T18 construct: purchased Upstate
# T18 sequence (P07333 20-972): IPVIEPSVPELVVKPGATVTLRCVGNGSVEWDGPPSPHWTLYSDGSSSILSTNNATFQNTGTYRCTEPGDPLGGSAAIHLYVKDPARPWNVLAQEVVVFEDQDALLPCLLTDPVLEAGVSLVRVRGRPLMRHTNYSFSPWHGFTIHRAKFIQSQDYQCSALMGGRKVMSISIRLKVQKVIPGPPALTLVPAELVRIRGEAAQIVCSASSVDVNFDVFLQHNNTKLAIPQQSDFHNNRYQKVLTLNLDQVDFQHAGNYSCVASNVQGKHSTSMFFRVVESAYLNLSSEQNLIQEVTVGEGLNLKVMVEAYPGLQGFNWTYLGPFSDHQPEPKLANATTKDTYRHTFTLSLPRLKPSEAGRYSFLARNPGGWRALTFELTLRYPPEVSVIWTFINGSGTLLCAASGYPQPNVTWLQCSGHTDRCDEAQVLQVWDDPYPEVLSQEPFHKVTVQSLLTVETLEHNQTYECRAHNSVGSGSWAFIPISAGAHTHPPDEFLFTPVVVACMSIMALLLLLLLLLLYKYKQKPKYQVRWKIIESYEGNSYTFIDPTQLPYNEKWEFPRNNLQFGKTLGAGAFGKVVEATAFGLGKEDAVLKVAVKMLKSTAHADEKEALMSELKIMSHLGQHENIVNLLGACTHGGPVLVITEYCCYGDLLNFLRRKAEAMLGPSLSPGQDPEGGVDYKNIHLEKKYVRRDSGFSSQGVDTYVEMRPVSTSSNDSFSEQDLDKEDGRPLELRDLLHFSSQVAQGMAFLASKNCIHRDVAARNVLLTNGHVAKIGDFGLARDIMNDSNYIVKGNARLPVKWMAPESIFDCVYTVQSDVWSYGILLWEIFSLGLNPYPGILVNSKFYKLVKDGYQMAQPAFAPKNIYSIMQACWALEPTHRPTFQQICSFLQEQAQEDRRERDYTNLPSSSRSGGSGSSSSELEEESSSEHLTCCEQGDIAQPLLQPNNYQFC
# Method: as §1
# [19] = target: T19, PKCθ(h) (Homo sapiens, UniProt Q04759); test: Kinase selectivity screen (Upstate); type: biochemical; details: 10 μM compound; ATP 15 μM; N = 2
# T19 construct: purchased Upstate
# Method: as §1
# [20] = target: T20, NEK2(h) (Homo sapiens, UniProt P51955); test: Kinase selectivity screen (Upstate); type: biochemical; details: 10 μM compound; ATP 120 μM; N = 2
# T20 construct: purchased Upstate
# T20 sequence (P51955 whole entry): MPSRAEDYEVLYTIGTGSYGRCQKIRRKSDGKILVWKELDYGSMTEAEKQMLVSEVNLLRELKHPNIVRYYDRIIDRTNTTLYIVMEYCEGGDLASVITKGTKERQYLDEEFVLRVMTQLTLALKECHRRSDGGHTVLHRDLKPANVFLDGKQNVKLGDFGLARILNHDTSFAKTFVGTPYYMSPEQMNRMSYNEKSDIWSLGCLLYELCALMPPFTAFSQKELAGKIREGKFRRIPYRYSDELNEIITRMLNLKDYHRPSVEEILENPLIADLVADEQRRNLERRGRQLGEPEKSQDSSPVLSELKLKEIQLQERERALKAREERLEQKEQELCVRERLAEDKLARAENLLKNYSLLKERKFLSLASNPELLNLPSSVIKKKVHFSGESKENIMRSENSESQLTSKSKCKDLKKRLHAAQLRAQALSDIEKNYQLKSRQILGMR
# Method: as §1
# [21] = target: T21, cKit(h) (Homo sapiens, UniProt P10721); test: Kinase selectivity screen (Upstate); type: biochemical; details: 10 μM compound; ATP 200 μM; N = 2
# T21 construct: purchased Upstate
# Method: as §1
# [22] = target: T22, ZAP-70(h) (Homo sapiens, UniProt P43403); test: Kinase selectivity screen (Upstate); type: biochemical; details: 10 μM compound; ATP 15 μM; N = 2
# T22 construct: purchased Upstate
# T22 sequence (P43403 whole entry): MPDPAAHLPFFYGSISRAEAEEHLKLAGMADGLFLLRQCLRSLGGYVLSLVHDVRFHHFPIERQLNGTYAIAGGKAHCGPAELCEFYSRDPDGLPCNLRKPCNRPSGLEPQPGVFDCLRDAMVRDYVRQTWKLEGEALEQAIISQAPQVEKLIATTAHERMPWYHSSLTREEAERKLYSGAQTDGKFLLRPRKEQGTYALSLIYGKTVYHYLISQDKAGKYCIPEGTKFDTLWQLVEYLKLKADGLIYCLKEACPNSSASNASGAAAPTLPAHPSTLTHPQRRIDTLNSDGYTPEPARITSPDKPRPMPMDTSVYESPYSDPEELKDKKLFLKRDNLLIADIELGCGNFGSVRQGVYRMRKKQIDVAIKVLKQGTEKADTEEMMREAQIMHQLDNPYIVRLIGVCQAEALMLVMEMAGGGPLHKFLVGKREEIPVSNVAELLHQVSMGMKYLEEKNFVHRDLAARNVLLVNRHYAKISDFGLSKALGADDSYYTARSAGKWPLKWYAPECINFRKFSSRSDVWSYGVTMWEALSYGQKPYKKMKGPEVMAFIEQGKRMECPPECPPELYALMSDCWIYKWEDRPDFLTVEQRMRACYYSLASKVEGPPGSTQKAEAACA
# Method: as §1
# [23] = target: T23, KDR(h) (Homo sapiens, UniProt P35968); test: Kinase selectivity screen (Upstate); type: biochemical; details: 10 μM compound; ATP 90 μM; N = 2
# T23 construct: purchased Upstate
# Method: as §1
# [24] = target: T24, Aurora-A(h) (Homo sapiens, UniProt O14965); test: Kinase selectivity screen (Upstate); type: biochemical; details: 10 μM compound; ATP 15 μM; N = 2
# T24 construct: purchased Upstate
# Method: as §1
# [25] = target: T25, CHK2(h) (Homo sapiens, UniProt O96017); test: Kinase selectivity screen (Upstate); type: biochemical; details: 10 μM compound; ATP 70 μM; N = 2
# T25 construct: purchased Upstate
# Method: as §1
# [26] = test system: other kinases; test: Kinase selectivity screen (Upstate), panel as a whole; type: biochemical, human; details: 10 μM compound; summary of Table 5
# Method: as §1
# T1 sequence (Q12809 whole entry): as the sequence (Q12809 whole entry) above
smiles,measurement,setting,value
"CN(C)CCCOc1ccc(Cl)cc1NC(=O)Nc1cnccn1 [Example 1C, 1-[5-Chloro-2-(3-dimethyloxyamino-propoxy)-phenyl]-3-pyrazin-2-yl-urea]",IC50,[1],108 nM
same,IC50,[2],5030 nM
same,IC50,[3],41 nM
C[N+](C)([O-])CCCOc1ccc(Cl)cc1NC(=O)Nc1cnccn1 [Example 1F],inhibition at 10 µM,[4],0%
same,inhibition at 10 µM,[5],92%
same,inhibition at 10 µM,[6],11%
same,inhibition at 10 µM,[7],11%
same,inhibition at 10 µM,[8],73%
same,inhibition at 10 µM,[9],0%
same,inhibition at 10 µM,[10],0%
same,inhibition at 10 µM,[11],36%
same,inhibition at 10 µM,[12],0%
same,inhibition at 10 µM,[13],0%
same,inhibition at 10 µM,[14],0%
same,inhibition at 10 µM,[15],0%
same,inhibition at 10 µM,[16],1%
same,inhibition at 10 µM,[17],0%
same,inhibition at 10 µM,[18],12%
same,inhibition at 10 µM,[19],37%
same,inhibition at 10 µM,[20],0%
same,inhibition at 10 µM,[21],0%
same,inhibition at 10 µM,[22],5%
same,inhibition at 10 µM,[23],38%
same,inhibition at 10 µM,[24],14%
same,inhibition at 10 µM,[25],71%
same,"activity against most other kinases apart from CHK2, FGFR1 and Flt3",[26],largely inactive or only poorly active
same,IC50,[1],26700 nM
same,HERG Binding % @ 100 uM (extent of binding),[2],35% @ 100 uM
same,IC50,[3],71 nM
"Cc1cnc(NC(=O)Nc2cc(Cl)ccc2OCCCN(C)C)cn1 [Example 2B, 1-[5-Chloro-2-(3-dimethylamino-propoxy)-phenyl]-3-(5-methyl-pyrazin-2-yl)-urea]",IC50,[1],610 nM
same,IC50,[2],2980 nM
same,IC50,[3],51 nM
"Cc1cnc(NC(=O)Nc2cc(Cl)ccc2OCCC[N+](C)(C)[O-])cn1 [Example 2C, 1-[5-Chloro-2-(3-dimethyloxyamino-propoxy)-phenyl]-3-(5-methyl-pyrazin-2-yl)-urea]",IC50,[1],> 30000 nM
same,HERG Binding % @ 100 uM (extent of binding),[2],3% @ 100 uM
same,IC50,[3],128 nM
"CN(C)CCCOc1ccc(Cl)cc1NC(=O)Nc1cnc(C#N)cn1 [Example 3B, 1-[5-Chloro-2-(3-dimethylamino-propoxy)-phenyl]-3-(5-cyano-pyrazin-2-yl)-urea]",IC50,[1],435 nM
same,IC50,[2],5120 nM
same,IC50,[3],< 10 nM
"C[N+](C)([O-])CCCOc1ccc(Cl)cc1NC(=O)Nc1cnc(C#N)cn1 [Example 3C, 1-[5-Chloro-2-(3-dimethyloxyamino-propoxy)-phenyl]-3-(5-cyano-pyrazin-2-yl)-urea]",IC50,[1],16300 nM
same,HERG Binding % @ 100 uM (extent of binding),[2],46% @ 100 uM
same,IC50,[3],24 nM
"CN(C)CCCOc1ccc(Cl)cc1NC(=O)Nc1ccc(C#N)cn1 [Example 4B, 1-[5-Chloro-2-(3-dimethylamino-propoxy)-phenyl]-3-(5-cyano-pyridin-2-yl)-urea]",IC50,[1],130 nM
same,IC50,[2],445 nM
same,IC50,[3],279 nM
"C[N+](C)([O-])CCCOc1ccc(Cl)cc1NC(=O)Nc1ccc(C#N)cn1 [Example 4C, 1-[5-Chloro-2-(3-dimethyloxylamino-propoxy)-phenyl]-3-(5-cyano-pyridin-2-yl)-urea]",IC50,[1],2440 nM
same,IC50,[2],7670 nM
same,IC50,[3],581 nM
